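48-hour exposure; five concentrations; linearly interpolated endpoints. GI50 = concentration required for 50% inhibition of growth.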 Activity calls are given as the source filed them. No stated cut-off is given here; in the data, active = GI50 up to about 1.1 µM and inactive = higher.
Assays:
Assay in all cases: NCI-60 cell line screen, 48 h
[1] = test system: OVCAR-8
[2] = test system: M14
[3] = test system: HCC 2998
[4] = test system: Malme-3M
[5] = test system: OVCAR-4
[6] = test system: SK-MEL-28
[7] = test system: SK-OV-3
[8] = test system: KM12
[9] = test system: NCI-H23
[10] = test system: SW-620
[11] = test system: T47D
[12] = test system: OVCAR-3
[13] = test system: CAKI-1
[14] = test system: SF-268
[15] = test system: UACC-62
[16] = test system: UO-31
[17] = test system: DU-145
[18] = test system: SF-295
[19] = test system: SNB-75
[20] = test system: HT-29
[21] = test system: MDA-MB-231
[22] = test system: OVCAR-5
[23] = test system: PC-3
[24] = test system: HOP-92
[25] = test system: U-251
[26] = test system: SK-MEL-2
[27] = test system: SK-MEL-5
[28] = test system: BT-549
[29] = test system: HCT-15
[30] = test system: MOLT-4
[31] = test system: HOP-62
[32] = test system: NCI-H460
[33] = test system: MDA-N
[34] = test system: SNB-19
[35] = test system: MDA-MB-435
[36] = test system: RPMI-8226
[37] = test system: A498
[38] = test system: ACHN
[39] = test system: EKVX
[40] = test system: CCRF-CEM
[41] = test system: RXF 393
[42] = test system: TK-10
[43] = test system: 786-0
[44] = test system: Hs-578T
[45] = test system: K562
[46] = test system: COLO 205
[47] = test system: SN12C
[48] = test system: MCF7
[49] = test system: HCT-116
[50] = test system: A549
[51] = test system: UACC-257
[52] = test system: NCI/ADR-RES
[53] = test system: IGROV-1
[54] = test system: NCI-H226
[55] = test system: SR
[56] = test system: SF-539
[57] = test system: LOX IMVI
[58] = test system: NCI-H522
[59] = test system: HL-60

C[C@@H](NC(=O)[C@@H]1C[C@]1(C)CO)c1cccc2ccccc12
GI50 [1]: > 100 µM (inactive) | GI50 [2]: > 100 µM (inactive) | GI50 [3]: > 100 µM (inactive) | GI50 [4]: > 100 µM (inactive) | GI50 [5]: > 100 µM (inactive) | GI50 [6]: > 100 µM (inactive) | GI50 [7]: > 100 µM (inactive) | GI50 [8]: > 100 µM (inactive) | GI50 [9]: > 100 µM (inactive) | GI50 [10]: > 100 µM (inactive) | GI50 [11]: > 100 µM (inactive) | GI50 [12]: > 100 µM (inactive) | GI50 [13]: > 100 µM (inactive) | GI50 [14]: > 100 µM (inactive) | GI50 [15]: > 100 µM (inactive) | GI50 [16]: > 100 µM (inactive) | GI50 [17]: > 100 µM (inactive) | GI50 [18]: > 100 µM (inactive) | GI50 [19]: > 100 µM (inactive) | GI50 [20]: > 100 µM (inactive) | GI50 [21]: > 100 µM (inactive) | GI50 [22]: > 100 µM (inactive) | GI50 [23]: > 100 µM (inactive) | GI50 [24]: > 100 µM (inactive) | GI50 [25]: > 100 µM (inactive) | GI50 [26]: > 100 µM (inactive) | GI50 [27]: > 100 µM (inactive) | GI50 [28]: > 100 µM (inactive) | GI50 [29]: > 100 µM | GI50 [30]: > 100 µM (inactive) | GI50 [31]: > 100 µM (inactive) | GI50 [32]: > 100 µM (inactive) | GI50 [33]: > 100 µM (inactive) | GI50 [34]: > 100 µM (inactive) | GI50 [35]: > 100 µM (inactive) | GI50 [36]: > 100 µM (inactive) | GI50 [37]: > 100 µM (inactive) | GI50 [38]: > 100 µM (inactive) | GI50 [39]: > 100 µM (inactive) | GI50 [40]: > 100 µM (inactive) | GI50 [41]: > 100 µM (inactive) | GI50 [42]: > 100 µM (inactive) | GI50 [43]: > 100 µM (inactive) | GI50 [44]: > 100 µM (inactive) | GI50 [45]: > 100 µM (inactive) | GI50 [46]: > 100 µM (inactive) | GI50 [47]: > 100 µM (inactive) | GI50 [48]: > 100 µM (inactive) | GI50 [49]: > 100 µM (inactive) | GI50 [50]: > 100 µM (inactive) | GI50 [51]: > 100 µM (inactive) | GI50 [52]: > 100 µM (inactive) | GI50 [53]: > 100 µM (inactive) | GI50 [54]: > 100 µM (inactive) | GI50 [55]: > 100 µM (inactive)

Cc1ccc(NC(=O)c2ccccc2C(=O)O)cc1C
GI50 [1]: > 100 µM (inactive) | GI50 [56]: > 100 µM (inactive) | GI50 [2]: > 100 µM (inactive) | GI50 [4]: > 100 µM (inactive) | GI50 [5]: > 100 µM (inactive) | GI50 [6]: > 100 µM (inactive) | GI50 [7]: > 100 µM (inactive) | GI50 [8]: > 100 µM (inactive) | GI50 [9]: > 100 µM (inactive) | GI50 [57]: > 100 µM (inactive) | GI50 [10]: > 100 µM (inactive) | GI50 [11]: > 100 µM (inactive) | GI50 [12]: > 100 µM (inactive) | GI50 [13]: > 100 µM (inactive) | GI50 [14]: > 100 µM (inactive) | GI50 [15]: > 100 µM (inactive) | GI50 [17]: > 100 µM (inactive) | GI50 [18]: > 100 µM (inactive) | GI50 [19]: > 100 µM (inactive) | GI50 [20]: > 100 µM (inactive) | GI50 [21]: > 100 µM (inactive) | GI50 [22]: > 100 µM (inactive) | GI50 [23]: > 100 µM (inactive) | GI50 [24]: > 100 µM (inactive) | GI50 [25]: > 100 µM (inactive) | GI50 [26]: > 100 µM (inactive) | GI50 [27]: > 100 µM (inactive) | GI50 [28]: > 100 µM (inactive) | GI50 [58]: > 100 µM (inactive) | GI50 [29]: > 100 µM | GI50 [30]: > 100 µM (inactive) | GI50 [31]: > 100 µM (inactive) | GI50 [32]: > 100 µM (inactive) | GI50 [33]: > 100 µM (inactive) | GI50 [34]: > 100 µM (inactive) | GI50 [35]: > 100 µM (inactive) | GI50 [36]: > 100 µM (inactive) | GI50 [37]: > 100 µM (inactive) | GI50 [38]: > 100 µM (inactive) | GI50 [39]: > 100 µM (inactive) | GI50 [41]: > 100 µM (inactive) | GI50 [42]: > 100 µM (inactive) | GI50 [43]: > 100 µM (inactive) | GI50 [44]: > 100 µM (inactive) | GI50 [45]: > 100 µM (inactive) | GI50 [46]: > 100 µM (inactive) | GI50 [47]: > 100 µM (inactive) | GI50 [48]: > 100 µM (inactive) | GI50 [49]: > 100 µM (inactive) | GI50 [50]: > 100 µM (inactive) | GI50 [51]: > 100 µM (inactive) | GI50 [52]: > 100 µM (inactive) | GI50 [53]: > 100 µM (inactive) | GI50 [54]: > 100 µM (inactive) | GI50 [55]: > 100 µM (inactive)

CCC12CC(c3ccccc3)C(C(=O)N1)C(=O)N2 (stereo unspecified)
GI50 [1]: > 100 µM (inactive) | GI50 [56]: > 100 µM (inactive) | GI50 [2]: > 100 µM (inactive) | GI50 [4]: > 100 µM (inactive) | GI50 [5]: > 100 µM (inactive) | GI50 [6]: > 100 µM (inactive) | GI50 [7]: > 100 µM (inactive) | GI50 [8]: > 100 µM (inactive) | GI50 [9]: > 100 µM (inactive) | GI50 [10]: > 100 µM (inactive) | GI50 [11]: > 100 µM (inactive) | GI50 [12]: > 100 µM (inactive) | GI50 [13]: > 100 µM (inactive) | GI50 [14]: > 100 µM (inactive) | GI50 [15]: > 100 µM (inactive) | GI50 [16]: > 100 µM (inactive) | GI50 [17]: > 100 µM (inactive) | GI50 [18]: > 100 µM (inactive) | GI50 [19]: 65.3 µM (inactive) | GI50 [20]: > 100 µM (inactive) | GI50 [21]: > 100 µM (inactive) | GI50 [59]: > 100 µM (inactive) | GI50 [22]: > 100 µM (inactive) | GI50 [23]: > 100 µM (inactive) | GI50 [24]: > 100 µM (inactive) | GI50 [25]: > 100 µM (inactive) | GI50 [26]: > 100 µM (inactive) | GI50 [27]: > 100 µM (inactive) | GI50 [28]: > 100 µM (inactive) | GI50 [58]: > 100 µM (inactive) | GI50 [29]: > 100 µM | GI50 [30]: > 100 µM (inactive) | GI50 [31]: > 100 µM (inactive) | GI50 [32]: > 100 µM (inactive) | GI50 [33]: > 100 µM (inactive) | GI50 [34]: > 100 µM (inactive) | GI50 [35]: > 100 µM (inactive) | GI50 [36]: > 100 µM (inactive) | GI50 [37]: > 100 µM (inactive) | GI50 [38]: > 100 µM (inactive) | GI50 [39]: > 100 µM (inactive) | GI50 [40]: > 100 µM (inactive) | GI50 [41]: > 100 µM (inactive) | GI50 [43]: > 100 µM (inactive) | GI50 [44]: > 100 µM (inactive) | GI50 [45]: > 100 µM (inactive) | GI50 [46]: > 100 µM (inactive) | GI50 [47]: > 100 µM (inactive) | GI50 [48]: > 100 µM (inactive) | GI50 [49]: > 100 µM (inactive) | GI50 [50]: > 100 µM (inactive) | GI50 [51]: > 100 µM (inactive) | GI50 [52]: > 100 µM (inactive) | GI50 [53]: > 100 µM (inactive) | GI50 [54]: > 100 µM (inactive) | GI50 [55]: > 100 µM (inactive)
